The values that follow come from publication PMC12028472, “Marine-Derived Yaequinolone Derivative CHNQD-02792 Suppresses Colorectal Cancer Cell Proliferation and Induces Apoptosis via MAPK Pathway Modulation” (Marine Drugs, 2025).

Each structure is given as a SMILES string.

The term IC50 denotes the concentration that gives 50% inhibition. Low readings indicate greater potency in that assay, high ones weaker potency in that assay.

The test system of one test is LS-174T. The experiment in a line: MTT assay, LS-174T cells. The settings on record: Homo sapiens, LS174T, 72 h. The test is classed as cell-based. Here is the method:
(§1) Human colorectal adenocarcinoma cells HT-29, HCT-116, DLD-1, LS-174T, RKO, and LoVo, as well as mouse colorectal carcinoma cell CT-26, were purchased from the Chinese Academy of Sciences Shanghai Cell Bank.
(§2) Cells stored at −80 °C were rapidly thawed in a 37 °C water bath, centrifuged to collect, and resuspended in a complete medium for culturing in a 37 °C, 5% CO2 incubator. Then, they were rinsed twice with PBS, digested with trypsin, and resuspended in a complete medium after detachment. HT-29, HCT-116, DLD-1, and CT-26 cells were cultured in RPMI-1640 medium supplemented with 10% FBS and 1% penicillin-streptomycin. LS-174T cells were cultured in DMEM-H medium, LoVo in Ham’s F-12K medium, and RKO in MEM.
(§3) Cells in the logarithmic growth phase were seeded in 96-well plates at 4000 cells per well, adjusted based on growth rates, and incubated overnight at 37 °C with 5% CO2. Experimental wells were treated with yaequinolone derivatives at concentrations of 0.4, 2, 10, 20, and 50 μM, while control wells received equivalent dilutions of DMSO to minimize effects. Each group was prepared in five replicates and incubated for 72 h. After removing the drug-containing medium, 100 μL of MTT solution (5 mg/mL) was added to each well and incubated at 37 °C for 4 h. The solution was then aspirated, replaced with 200 μL of DMSO, incubated for 10 min at 37 °C, and shaken before measuring absorbance (OD) at 570 nm using a microplate reader. The tumor cell survival rate was calculated as follows: survival rate (%) = [(OD experimental group − OD blank group)/(OD control group − OD blank group)] × 100%. All experiments were conducted in triplicate.

The subject of another test is CT-26. The experiment in a line: MTT assay, CT-26 cells. In kind it is cell-based. The settings on record: Mus musculus, CT26, 72 h. The procedure: as §1, §2, §3
In general terms: Tetrazolium dyes change colour on reduction, which living cells bring about.

The test system of a further test is RKO. The experiment in a line: MTT assay, RKO cells. In kind it is cell-based. The following applies: Homo sapiens, 72 h. The procedure:
as §1, §2, §3

For another test, the system named is DLD-1. The experiment in a line: MTT assay, DLD-1 cells. In kind it is cell-based. The settings on record: Homo sapiens, 72 h. The procedure: as §1, §2, §3
For a further test, the system named is HT-29. The experiment in a line: MTT assay, HT-29 cells. In kind it is cell-based. The settings on record: Homo sapiens, 72 h. Here is the method:
as §1, §2, §3

The subject of the next test is LoVo. The experiment in a line: MTT assay, LoVo cells. The test is classed as cell-based. The following applies: Homo sapiens, 72 h. The procedure: as §1, §2, §3
In a further test the test system is HCT-116. The experiment in a line: MTT assay, HCT-116 cells. In kind it is cell-based. The settings on record: Homo sapiens, 72 h. The procedure: as §1, §2, §3
Another test has as its system Bax. The experiment in a line: Western blot, Bax expression in HT-29 cells. In kind it is cell-based, human. The following applies: HT-29, increasing concentrations (2.3, 4.5, 9 μM). Here is the method: (§4) Cells in the logarithmic growth phase were seeded at 600,000 cells per well in 6-well plates and incubated overnight at 37 °C with 5% CO2. CHNQD-02792 (2.3, 4.5, and 9 μM) was added to the experimental group, while an equivalent dilution of DMSO was added to the control group. After 24 h of treatment, the cells were collected from the incubator. The cells were washed twice with pre-cooled PBS, and the proteins were extracted using ice-cold RIPA lysis buffer (RIPA-PMSF, 99:1, v/v). Adherent cells were scraped off the Petri dish with a pre-cooled plastic scraper. Protein concentrations were measured using a BCA kit. Protein samples were mixed with 5× loading buffer, boiled in a metal bath for 6 min, and stored at −20 °C. Proteins of different molecular weights were separated by gel electrophoresis and transferred onto PVDF membranes using wet transfer. The membrane was blocked with 5% skimmed milk powder for 2 h, followed by incubation with the primary antibody overnight at 4 °C. After three washes with TBST (10 min each), the membrane was incubated with the secondary antibody at room temperature for 1 h. It was then washed three times with TBST (10 min each) and analyzed using a gel imaging system with a high-sensitivity ECL luminescent solution.
For orientation: In western blotting, separated proteins are transferred to a membrane and probed.

The test system of the next test is Cyclin B1. The experiment in a line: Western blot, Cyclin B1 expression in HT-29 cells. In kind it is cell-based, human. The settings on record: HT-29, increasing concentrations (2.3, 4.5, 9 μM). Here is the method:
as §4

Test [1] concerns HT-29 cells. The experiment in a line: Plate colony formation assay. The test is classed as cell-based, human. The following applies: 9 μM, 14 days. Here is the method: Cells in the logarithmic growth phase were seeded at 1000 per well in 6-well plates and incubated overnight at 37 °C with 5% CO2. CHNQD-02792 (2.3, 4.5, and 9 μM) was added to the experimental group, while the control group received an equal dilution of DMSO. The medium color was monitored regularly, and the medium was replaced simultaneously in both groups. After 14 days, clonal clusters (approximately 50 cells) were formed. The cells were washed with PBS, fixed with 4% paraformaldehyde for 1 h, stained with crystal violet for 30 min, washed again with PBS, dried, photographed, and analyzed using Image J software (v 1.8.0.) to count colonies. The cell proliferation rate was calculated by comparing the experimental group with the control group treated with DMSO.

A further test deals with RAW264.7 cells. The experiment in a line: Inhibition of RAW264.7 cells (normal cells vs cancer cells). In kind it is cell-based. The following applies: Mus musculus. An excerpt:
Therefore, to verify the difference between CHNQD-02792 on normal cells and cancer cells, we examined the inhibition of CHNQD-02792 on RAW264.7 cells. […] The inhibition of HT-29 cell colony formation increased with higher concentrations of CHNQD-02792.

Another test has as its system Caspase-3. The experiment in a line: Western blot, Caspase-3 expression in HT-29 cells. The test is classed as cell-based, human. The settings on record: HT-29, increasing concentrations (2.3, 4.5, 9 μM). The procedure: as §4
Another test concerns CDK1. The experiment in a line: Western blot, CDK1 expression in HT-29 cells. The test is classed as cell-based, human. The following applies: HT-29, increasing concentrations (2.3, 4.5, 9 μM). The procedure:
as §4

Another test deals with Bcl-2. The experiment in a line: Western blot, Bcl-2 expression in HT-29 cells. In kind it is cell-based, human. The settings on record: HT-29, increasing concentrations (2.3, 4.5, 9 μM). The procedure: as §4
For test [2], the system named is HT-29 cells. The experiment in a line: Apoptosis assay (Annexin V-FITC/PI flow cytometry). In kind it is cell-based, human. The procedure: Cells in the logarithmic growth phase were seeded at 600,000 cells per well in 6-well plates and incubated overnight at 37 °C in a 5% CO2 incubator. CHNQD-02792 (2.3, 4.5, 9 μM) was added to the experimental group, while the control group received an equal dilution of DMSO. After 48 h, cells were collected, centrifuged at 300× g for 5 min, and washed once with PBS. The cells were gently resuspended and counted. Take 1–5 × 10^5 resuspended cells, centrifuge at 300× g for 5 min, and discard the supernatant. The cells were washed once with PBS, centrifuged again, and the supernatant was discarded. Then, 500 μL of 1× diluted Annexin V Binding Buffer was added to resuspend the cells. Add 5 μL of Annexin V-FITC and 5 μL of PI (50 μg/mL) to the cell suspension. After gently vortexing, incubate the samples at room temperature in the dark for 15–20 min. Immediately analyze the samples using a flow cytometer. The results were analyzed using Novoexpress software (v.1.6.2).

Test [3] deals with HT-29 cells. The experiment in a line: Cell cycle assay (PI, flow cytometry). In kind it is cell-based, human. The settings on record: highest concentration, 48 h, control 16.42%. The procedure: Cells in the logarithmic growth phase were seeded at 350,000 cells per well in 6-well plates and incubated overnight at 37 °C with 5% CO2. CHNQD-02792 (2.3, 4.5, 9 μM) was added to the experimental group, while an equal dilution of DMSO was added to the control group. After 48 h, cells were collected, centrifuged at 300× g for 5 min at 4 °C, and resuspended in 1 mL of ice-cold PBS. This step was repeated, and the supernatant was discarded. The cells were then resuspended in 300 μL of PBS, and 700 μL of pre-cooled anhydrous ethanol was added dropwise for fixation at 4 °C overnight. Within 12–24 h, cells were centrifuged at 1000× g for 5 min, and the supernatant was discarded. The cells were washed with 1 mL of pre-cooled PBS, centrifuged again, and resuspended in 500 μL of PBS. RNase A and PI were then added to each tube, […]. The cells were incubated at 4 °C with RNase A and PI in the dark for 30 min. Data were collected using a flow cytometer (488 nm laser excitation, 620/29 nm filter), and results were analyzed using FlowJo software (v.10.8.1).
(In general: In flow cytometry, cells or beads pass a laser one at a time.)

The test system of test [4] is LPS-induced RAW264.7 cells. The arrangement: method as in PMID 36758306. The following applies: 10 nM; cited from earlier work.
Test [5] concerns LPS-induced RAW264.7 cells. On the set-up: method as in PMID 36758306. The settings on record: 50 nM; cited from earlier work.
In another test the test system is ERK. The experiment in a line: Western blot, ERK phosphorylation in HT-29 cells. In kind it is cell-based, human. The settings on record: HT-29, Western blot. The procedure:
as §4

The next test concerns JNK. The experiment in a line: Western blot, JNK phosphorylation in HT-29 cells. The following applies: HT-29, Western blot. In kind it is cell-based, human. The procedure:
as §4

Take `CO[C@@H]1C(=O)Nc2ccc3c(c2[C@@]1(O)c1cccc(Br)c1)O[C@@](C)(CCC=C(C)C)C=C3` [Compound 12]: the IC50 in the test on LS-174T is 7.7 µM; with CT-26, 26.3 µM; in the test on RKO, 37.3 µM; in the test on DLD-1, 11.6 µM; in the test with HT-29, 42.8 µM; with LoVo, over 50 µM. Moreover, half-maximal inhibition with HCT-116 (IC50) required 25.8 µM.
The compound `O=c1[nH]cc(F)c(=O)[nH]1` [5-fluorouracil, reference compound] registered an IC50 with HT-29 of 15.6 µM. That is a double-digit micromolar value.
As to `COc1ccc([C@]2(O)c3c(ccc4c3O[C@@](C)(CCC=C(C)C)C=C4)N(Cc3cccc(Br)c3)C(=O)[C@H]2OC)cc1` [Compound 7], the IC50 in the test with LS-174T is over 50 µM; in the test with CT-26, over 50 µM; in the test on RKO, 22 µM; in the test on DLD-1, over 50 µM; with HT-29, over 50 µM; in the test on LoVo it was 25 µM. In the test with HCT-116, this compound returned an IC50 of over 50 µM.
As to `CO[C@@H]1C(=O)Nc2ccc3c(c2[C@@]1(O)c1cccc(Br)c1)O[C@](C)(CCC=C(C)C)C=C3` [Compound 13], the Bax protein expression result with Bax is “increased”. The “Cyclin B1 protein expression level” value with Cyclin B1 was “decreased”. Further, in the test with HT-29 cells [1], the “growth of HT-29 cells, plate cloning assay” value is “completely inhibited”. Besides, the IC50 was 24.3 µM in the test with LS-174T; 27.2 µM with RAW264.7 cells; over 50 µM in the test with CT-26; 28 µM with RKO; over 50 µM in the test with DLD-1; 4.5 µM with HT-29. For the same compound, the IC50 with LoVo is 28.3 µM; in the test on HCT-116, 50 µM. Further, in the test with Caspase-3, the Caspase-3 protein expression result is listed as “significantly increased”. Moreover, in the test on CDK1, the “CDK1 protein expression level” value is recorded as “decreased”. Besides, the Bcl-2 protein expression result in the test on Bcl-2 is “markedly decreased”. Besides, the “Q4 (early apoptotic cells)” value in the test on HT-29 cells [2] (9.0 μM, 48 h, HT-29, Annexin V-FITC/PI, control 5.31%) was 20.23%. Further, the “proportion of apoptotic cells” value in the test with HT-29 cells [2] (48 h of treatment, HT-29, control 6.81%) worked out at 26.10%. For the same compound, the “proportion of cells in the G2/M phase” value in the test on HT-29 cells [3] amounted to 31.78%. The NO release entry in [4] is reported as “significantly inhibiting”. Also, the IL-6 level result in [5] was “significantly inhibiting”. The “phosphorylation of ERK” value in the test on ERK is recorded as “inhibited”. The “phosphorylation of JNK” value in the test on JNK is listed as “increased”.
In the case of `COc1ccc([C@]2(O)c3c(ccc4c3O[C@](C)(CCC=C(C)C)C=C4)N(Cc3cccc(Br)c3)C(=O)[C@H]2OC)cc1` [Compound 4], the IC50 was over 50 µM in the test with LS-174T; over 50 µM in the test on CT-26; 48.3 µM in the test with RKO; over 50 µM with DLD-1; over 50 µM with HT-29; over 50 µM in the test with LoVo. Further, the IC50 in the test with HCT-116 is over 50 µM.
